Conditions: polymer system of polydimethylsiloxane vinyl terminated at various viscosity and a range of platinum-mono, di, tri and/or tetramethyldisiloxane complex
From the text: The amount of vinyl siloxane cross-linker may determine the rate of the drug release and diffusivity of the polymer to the drug.

For `CC(=O)O[C@H]1C(=O)[C@@]2(C)[C@H]([C@H](OC(=O)c3ccccc3)[C@]3(O)C[C@H](OC(=O)[C@H](O)[C@@H](NC(=O)c4ccccc4)c4ccccc4)C(C)=C1C3(C)C)[C@]1(OC(C)=O)CO[C@@H]1C[C@@H]2O` [paclitaxel], the release profile was “acceptable”.
